Square brackets hold non-standard residues; d marks the D form. Peptide text beside a SMILES is read from it. * marks the point of attachment. ξ: configuration not given here. pY = N[C@@H](Cc1ccc(OP(=O)(O)O)cc1)C(=O)O; NH(1R-phenylethyl) = C[C@@H](N*)c1ccccc1; NMeThr(3ξ) = CN[C@H](C(=O)O)C(C)O; Thr(3ξ) = CC(O)[C@H](N)C(=O)O; Inp = O=C(O)C1CCNCC1
Molecular target: Signal transducer and activator of transcription 3 (Mus musculus, UniProt P42227)
Assay: Fluorescence Polarization Assay
Experimental: Fluorescence polarization (FP) binding assay is utilizing the intrinsic property of the fluorescent probe, which will have low polarization value when free in solution. On binding to a target, the polarization of the probe will increase. Reaction mixtures of full length STAT3 alpha and the probe were placed in wells of a 96-well microtiter plate. The test peptide solution was added to each well. Fluorescence polarization was then read in a Tecan Polarian plate reader. The IC50 values were obtained from nonlinear regression analysis in the one-site competition mode. Peptides were assayed three times using three separate Stat3-probe preparations. IC50 values are reported as the mean of three IC50 values +/- the standard deviation.

Sequence of Signal transducer and activator of transcription 3 (P42227 whole entry): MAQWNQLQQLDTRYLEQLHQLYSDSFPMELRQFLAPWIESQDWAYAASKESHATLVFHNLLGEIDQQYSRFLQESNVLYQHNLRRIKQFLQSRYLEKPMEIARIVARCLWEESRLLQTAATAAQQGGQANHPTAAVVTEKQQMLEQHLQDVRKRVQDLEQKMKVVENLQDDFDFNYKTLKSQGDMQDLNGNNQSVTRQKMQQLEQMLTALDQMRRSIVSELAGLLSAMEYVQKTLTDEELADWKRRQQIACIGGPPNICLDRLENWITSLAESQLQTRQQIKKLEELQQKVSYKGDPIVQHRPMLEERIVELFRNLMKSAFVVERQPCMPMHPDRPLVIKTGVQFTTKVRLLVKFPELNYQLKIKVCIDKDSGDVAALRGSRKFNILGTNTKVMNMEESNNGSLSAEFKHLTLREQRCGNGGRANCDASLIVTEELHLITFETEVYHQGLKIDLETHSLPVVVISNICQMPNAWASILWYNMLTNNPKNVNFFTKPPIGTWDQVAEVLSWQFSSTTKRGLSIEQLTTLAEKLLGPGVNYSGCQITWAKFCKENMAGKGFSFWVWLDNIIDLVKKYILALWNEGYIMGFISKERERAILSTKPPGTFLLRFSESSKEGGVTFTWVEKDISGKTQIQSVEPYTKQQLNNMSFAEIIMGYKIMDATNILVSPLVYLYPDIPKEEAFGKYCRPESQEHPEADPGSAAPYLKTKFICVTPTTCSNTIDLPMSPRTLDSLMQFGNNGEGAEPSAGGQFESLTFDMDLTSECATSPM

CC(=O)N[C@@H](Cc1ccc(OP(=O)(O)O)cc1)C(=O)N[C@@H](CC(C)C)C(=O)N1CCC[C@H]1C(=O)N[C@@H](CCC(N)=O)C(=O)N[C@H](C)c1ccccc1 [4-[(2S)-2-{[(2S)-1-[(2S)-2-{[(1S)-3-carbamoyl-1-{[(1R)-1-phenylethyl]carbamoyl}propyl]carbamoyl}pyrrolidin-1-yl]-4-methyl-1-oxopentan-2-yl]carbamoyl}-2-acetamidoethyl]phenoxyphosphonic acid] (Ac-[pY]LPQ-{NH(1R-phenylethyl)})
IC50: 0.801 µM

CC(=O)N[C@@H](Cc1ccc(OP(=O)(O)O)cc1)C(=O)N[C@@H](CC(C)C)C(=O)N1CCC(C(=O)N[C@@H](CCC(N)=O)C(=O)N[C@H](C(N)=O)C(C)O)CC1 (stereo partly drawn) [4-[(2S)-2-{[(2S)-1-(4-{[(1S)-3-carbamoyl-1-{[(1S,2S)-1-carbamoyl-2-hydroxypropyl]carbamoyl}propyl]carbamoyl}piperidin-1-yl)-4-methyl-1-oxopentan-2-yl]carbamoyl}-2-acetamidoethyl]phenoxyphosphonic acid] (Ac-[pY]L[Inp]Q[Thr(3ξ)]-NH2)
IC50 (pH 7.5, 22 °C): 34.6 µM

CC(=O)N[C@@H](Cc1ccc(OP(=O)(O)O)cc1)C(=O)N[C@@H](CC(C)C)C(=O)N1CCC[C@H]1C(=O)N[C@@H](CCC(N)=O)C(N)=O (Ac-[pY]LPQ-NH2)
IC50 (pH 7.5, 22 °C): 0.856 µM

CC(=O)N[C@@H](Cc1ccc(OP(=O)(O)O)cc1)C(=O)N[C@@H](CC(C)C)C(=O)N1CCC[C@H]1C(=O)N[C@@H](CCC(N)=O)C(=O)N(C)[C@H](C(N)=O)C(C)O (stereo partly drawn) [4-[(2S)-2-{[(2S)-1-[(2S)-2-{[(1S)-3-carbamoyl-1-{[(1S,2S)-1-carbamoyl-2-hydroxypropyl](methyl)carbamoyl}propyl]carbamoyl}pyrrolidin-1-yl]-4-methyl-1-oxopentan-2-yl]carbamoyl}-2-acetamidoethyl]phenoxyphosphonic acid] (Ac-[pY]LPQ[NMeThr(3ξ)]-NH2)
IC50: 1.22 µM

From BindingDB's records for doi:10.1021/jm050513m (The University of Texas At Houston, 2005)
